How the values were obtained:
gE [1] = test: Anti-gE ELISA, D28 total IgG endpoint titers (Example 5); type: in vivo, Varicella zoster virus; conditions: CD-1 mice; high vs low TLR4 agonist dose with 5 mcg gE + 40 mcg TQL-1055 FA HPβCD
Text: (§1) The tolerability and immunogenicity of formulations containing (TQL-1055 free acid HP-β-CD (2-hydroxypropyl beta-cyclodextrin) and TLR4 agonist candidates were studied. CD-1 mice were immunized as shown in the table below. PHAD liposomes were obtained from Avanti. EcML was obtained from EuBiologics. CRX-527 was obtained from InvivoGen. TLR4a-1 is an undisclosed TLR4 compound. AS01 is a combination of 5 mcg QS-21 and 5 mcg MPL used in SHINGRIX.
(§2) Mice were immunized via I.M. on Day 0 and Day 14. Groups were bled at Day-1, Day 13 (post Dose 1), and Day 28 (post Dose 2) for serum analysis for anti-gE specific antibody response and anti-gE specific T cell response. Weight measurements were also obtained on Days 0, 1, 2, 14, 15, 16, and 17.

gE [2] = test: Anti-gE ELISA, D28 IgG2a subclass endpoint titers (Example 5); type: in vivo, Varicella zoster virus; conditions: CD-1 mice; with 5 mcg gE + 40 mcg TQL-1055; EcML statement at the low TLR4a dose
Text: as §1, §2
Similar responses were observed from all 4 TLR4 agonists with CRX-527 having the lowest IgG2a titers. There was a more pronounced dose effect of TLR4a on IgG2a than total IgG. PHAD had the largest difference between low and high dose at 8 times higher. At the low TLR4a dose, EcML had the highest IgG2a.

CD4+ T cells [3] = test: D26 CD4 T-cell ICS (Example 5); type: in vivo; conditions: CD-1 mice, high dose PHAD, high dose CRX-527, low dose TLR4a-1 (each with gE + 40 mcg TQL-1055)
Text: as §1
(§3) Mice were immunized via I.M. on Day 0 and Day 14. […] Weight measurements were also obtained on Days 0, 1, 2, 14, 15, 16, and 17.
The increases were driven largely by higher single cytokine positive T cells for IFN-γ or IL-2.

CD8 T cells = test: D26 CD8 T-cell ICS (Example 5); type: in vivo; conditions: CD-1 mice; high dose PHAD, both doses CRX-527, high dose TLR4a-1 (each with gE + 40 mcg TQL-1055); AS01
Text: as §1, §3

CD4+ T cells [4] = test: D42 CD4 T-cell ICS (Example 5); type: in vivo; conditions: CD-1 mice; AS01; both PHAD doses, high dose TLR4a-1, high dose CRX-527 (each with gE + 40 mcg TQL-1055)
Text: as §1, §2
Overall, levels of activation much lower than D26 T cell data.

CD4+ T cells [5] = test: T-cell intracellular cytokine staining (ICS) assay, CD4+ T-cell (Example 4); type: in vivo; conditions: mice
Protocol: (§4) The impact of TQL-1055 choline salt (in situ salt) at various dosages, a TLR9 or TLR4 agonist, and VZV gE (expressed by CHO cells), as compared to AS-01B (5 mcg MPL+5 mcg QS-21) was tested. In Experiment #1, mice were immunized with PBS alone, gE (5 mcg)+TLR9 ligand (50 mcg)+TQL-1055 (four groups: 5 mcg, 15 mcg, 25 mcg, 50 mcg), and AS-01B. In Experiment #2, mice were immunized with PBS alone, gE (5 mcg)+TLR4 ligand (5 mcg)+TQL-1055 (four groups: 5 mcg, 15 mcg, 25 mcg, 50 mcg), and AS-01B.
(§5) Mice were immunized at Day 0 and Day 21. Groups were bled at Day 31 […] for serum analysis.
FIG. 22 is a graph depicting the results of a T-cell intracellular cytokine staining (ICS) assay (CD4+ T-cell) showing the percentage of CD4+ T cells expressing one or more cytokines in response to stimulation with VZV gE for Experiment 1. FIG. 23 is a graph depicting the results of T-cell intracellular cytokine staining (ICS) assays (CD4+ T-cell) showing the percentage of CD4+ T cells expressing one or more cytokines in response to stimulation with VZV gE for Experiment 2.

spleen lymphocytes = test: FluoroSpot (T-cell) assay, spot forming cells per million spleen lymphocytes (Example 4); type: in vivo; conditions: mice
Protocol: as §4, §5
FIG. 24 is a graph depicting the results of a FluroSpot (T-cell) assay showing spot forming cells per million spleen lymphocytes for Experiment 1. FIG. 25 is a graph depicting the results of a FluroSpot (T-cell) assay showing spot forming cells per million spleen lymphocytes for Experiment 2.

VZV gE = test: ELISA antibody titers (Example 4); type: in vivo, Varicella zoster virus; conditions: mice
Protocol: as §4, §5
FIG. 26 is a graph depicting the results of an enzyme-linked immunosorbent assay (ELISA) showing antibody titers for […]. FIG. 27 is a graph depicting the results of an enzyme-linked immunosorbent assay (ELISA) showing antibody titers for Experiment 1.

[6] = Weight loss: mean percent initial weight change after immunization (Example 6); type: in vivo, C57BL/6J mice; conditions: mice; TQL 1055 alone with gE
Protocol: as §1
The study was conducted in two parts with staggered start dates. Part A involved testing TQL1055 in combination with PHAD and EcML. Part B involved testing TQL1055 in combination with CRX-527 and TR4a-1.
Mice were immunized via I.M. on Day 0 and Day 14. Groups were bled at Day-1, Day 13 (post Dose 1), and Day 28 (post Dose 2) for serum analysis for anti-gE specific antibody response. Weight measurements were also obtained on Days 0, 1, 2, 14, 15, 16, and 17.
Post dose 1 mean percent (%) initial weight change for each group is depicted in FIGS. 40-45. Post dose 1 weight loss heatmaps are depicted in FIG. 46. Post dose 2 mean percent (%) initial weight change for each group is depicted in FIGS. 47-51. […] Weight loss appeared to be driven mostly by TLR4 dose.

[7] = gE 5 mcg + TLR9 ligand 50 mcg or TLR4 ligand 5 mcg + TQL-1055 5, 15, 25, 50 mcg
[8] = TQL-1055 5 mcg combined with TLR4 ligand vs AS-01B

| SMILES | effect of increasing the TLR4 agonist dose on D28 total IgG endpoint titers (gE [1]) | rank of IgG2a titers among the 4 TLR4 agonists (gE [2]) | D26 total cytokine+ CD4+ T cells compared to unadjuvanted (CD4+ T cells [3]; AS01) | D26 total polyfunctional CD4+ T cells compared to unadjuvanted control (CD4+ T cells [3]) | D26 activated CD8 T cells compared to unadjuvanted control group (CD8 T cells) | D42 total cytokine+ CD4+ T cells compared to unadjuvanted (CD4+ T cells [4]) | T-cell response by ICS compared to AS-01B (CD4+ T cells [5]; TQL-1055 5 mcg combined with TLR4 ligand vs AS-01B (5 mcg MPL + 5 mcg QS-21)) | T-cell response by ICS (CD4+ T cells expressing one or more cytokines on stimulation with VZV gE): dose dependence (CD4+ T cells [5]; [7]) | T-cell response by FluoroSpot compared to AS-01B (spleen lymphocytes; [8]) | T-cell response by FluoroSpot: dose dependence (spleen lymphocytes; [7]) | antibody response by ELISA compared to AS-01B (VZV gE; [8]) | antibody response by ELISA: dose dependence (VZV gE; [7]) | weight loss compared to unadjuvanted [6] |
| --- | --- | --- | --- | --- | --- | --- | --- | --- | --- | --- | --- | --- | --- |
| CCCCCCCCCCC[C@H](CC(=O)N[C@H]1[C@H](OC[C@H](NC(=O)C[C@@H](CCCCCCCCCCC)OC(=O)CCCCCCCCC)C(=O)O)O[C@H](CO)[C@@H](OP(=O)(O)O)[C@@H]1OC(=O)C[C@@H](CCCCCCCCCCC)OC(=O)CCCCCCCCC)OC(=O)CCCCCCCCC [CRX-527] | no effect | lowest | significantly increased | significantly higher | significantly higher | significantly increased |  |  |  |  |  |  |  |
| CC1O[C@@H](OC2C(O)[C@@H](NC(=O)CCCCCCCCCCC(=O)O)C(CO)O[C@H]2OC(=O)[C@]23CCC(C)(C)CC2C2=CCC4C5(C)CC[C@H](O)C(C)(C=O)C5CCC4(C)C2(C)CC3O)C(O)C(O)[C@H]1O[C@@H]1OC[C@@H](O)C(O)C1O (stereo partly shown) [TQL-1055] |  |  |  |  |  |  | without any significant difference | dose-dependent | without any significant difference | dose-dependent | without any significant difference | dose-dependent | no significant weight loss |

Source: patent US20260115280A1, “VACCINES” (ADJUVANCE TECHNOLOGIES, INC., priority 2021, published 2026)
